These results are taken from patent US20090036474A1, “Quinazoline derivatives for use against cancer” (priority 2004, published 2009).

One assay addresses T1, PDGFRα tyrosine kinase (Homo sapiens, UniProt P16234).
T1 construct: PDGFRα, PDGFRβ and KDR receptor cytoplasmic domains, obtained by expression of recombinant protein in insect cells; purchased Upstate Biotechnology Inc. 14-467; host or cells: Sf9 insect cells
Description: In vitro enzyme assay (ELISA), Test (a), PDGFRα. It counts as biochemical. The settings on record: ATP 14 μM, read-out: IC50 versus PDGFRα tyrosine kinase. How it is done:
(§1) The ability of test compounds to inhibit the phosphorylation of a tyrosine containing polypeptide substrate by the tyrosine kinase enzymes PDGFRα, PDGFRβ and KDR was assessed using conventional ELISA assays. DNA encoding the PDGFRα, PDGFRβ or KDR receptor cytoplasmic domains may be obtained by total gene synthesis (International Biotechnology Lab., 1987, 5(3), 19-25) or by cloning. The DNA fragments may be expressed in a suitable expression system to obtain polypeptide with tyrosine kinase activity. For example, PDGFRα, PDGFRβ and KDR receptor cytoplasmic domains, obtained by expression of recombinant protein in insect cells, can be shown to display intrinsic tyrosine kinase activity. In the case of the VEGF receptor KDR (Genbank Accession No. L04947), a DNA fragment encoding most of the cytoplasmic domain, commencing with methionine 806 and including the termination codon may be cloned into a baculovirus transplacement vector [for example pAcYM1 (see The Baculovirus Expression System: A Laboratory Guide, L. A. King and R. D. Possee, Chapman and Hall, 1992) or pAc360 or pBlueBacHis (available from Invitrogen Corporation)]. This recombinant construct may be co-transfected into insect cells [for example Spodoptera frugiperda 21(Sf21) or Spodoptera frugiperda 9(Sf9)] with viral DNA (for example Pharmingen BaculoGold) to prepare recombinant baculovirus. […]

Another assay deals with T2, PDGFRβ tyrosine kinase (Homo sapiens, UniProt P09619).
T2 construct: PDGFRα, PDGFRβ and KDR receptor cytoplasmic domains, obtained by expression of recombinant protein in insect cells; purchased Upstate Biotechnology Inc. 14-463; host or cells: Sf9 insect cells
Description: In vitro enzyme assay (ELISA), Test (a), PDGFRβ. The format is biochemical. The settings on record: ATP 2.8 μM, read-out: IC50 versus PDGFRβ tyrosine kinase. As for the experimental part:
as §1
(In general: In an ELISA, binding on a coated surface is turned into a signal by an enzyme label.)

The next assay deals with T3, KDR tyrosine kinase (Homo sapiens, UniProt P35968).
T3 construct: a DNA fragment encoding most of the cytoplasmic domain, commencing with methionine 806 and including the termination codon; made in house; host or cells: Sf9 insect cells (recombinant baculovirus)
Description: In vitro enzyme assay (ELISA), Test (a), KDR. It counts as biochemical. The conditions noted are these: ATP 8 μM, read-out: IC50 versus KDR tyrosine kinase. As for the experimental part:
The ability of test compounds to inhibit the phosphorylation of a tyrosine containing polypeptide substrate by the tyrosine kinase enzymes PDGFRα, PDGFRβ and KDR was assessed using conventional ELISA assays. DNA encoding the PDGFRα, PDGFRβ or KDR receptor cytoplasmic domains may be obtained by total gene synthesis (International Biotechnology Lab., 1987, 5(3), 19-25) or by cloning. The DNA fragments may be expressed in a suitable expression system to obtain polypeptide with tyrosine kinase activity. For example, PDGFRα, PDGFRβ and KDR receptor cytoplasmic domains, obtained by expression of recombinant protein in insect cells, can be shown to display intrinsic tyrosine kinase activity. In the case of the VEGF receptor KDR (Genbank Accession No. L04947), a DNA fragment encoding most of the cytoplasmic domain, commencing with methionine 806 and including the termination codon may be cloned into a baculovirus transplacement vector [for example pAcYM1 (see The Baculovirus Expression System: A Laboratory Guide, L. A. King and R. D. Possee, Chapman and Hall, 1992) or pAc360 or pBlueBacHis (available from Invitrogen Corporation)]. This recombinant construct may be co-transfected into insect cells [for example Spodoptera frugiperda 21(Sf21) or Spodoptera frugiperda 9(Sf9)] with viral DNA (for example Pharmingen BaculoGold) to prepare recombinant baculovirus. Details of the methods for the assembly of recombinant DNA molecules and the preparation and use of recombinant baculovirus can be found in standard texts, for example Sambrook et al., 1989, Molecular cloning—A Laboratory Manual, 2nd edition, Cold Spring Harbour Laboratory Press and O'Reilly et al., 1992, Baculovirus Expression Vectors—A Laboratory Manual, W. H. Freeman and Co, New York).
For expression, Sf9 cells were infected with plaque-pure KDR recombinant virus and harvested 48 hours later. […]

The target of a further assay is T4, phospho-Tyr751 PDGFRβ (Homo sapiens, UniProt P09619).
T4 construct: phosphorylation of PDGFR expressed on MG63 osteosarcoma cells; endogenous in cells; host or cells: MG63 osteosarcoma cells
Description: In vitro phospho-Tyr751 PDGFRβ ELISA assay in MG63 osteosarcoma cells, Test (b). The conditions noted are these: MG63 cells stimulated with PDGFBB, read-out: IC50 versus phospho-Tyr751 PDGFRβ. The format is cell-based. As for the experimental part: This assay uses a conventional ELISA method to determine the ability of test compounds to inhibit phosphorylation of tyrosine in PDGFRβ.
An MG63 osteosarcoma cell line [American Type Culture Collection (ATCC) CCL 1427] was routinely maintained at 37° C. with 7.5% CO2 in Dulbecco's modified Eagle's growth medium (DMEM; Sigma-Aldrich; Catalogue No. D6546) containing 10% foetal calf serum (FCS; Sigma-Aldrich; Catalogue No. F7524) and 2 mM L-glutamine (Invitrogen Ltd., Paisley, UK; Catalogue No. 25030-024).
For the assay, the cells were detached from the culture flask using a trypsin/ethylenediaminetetraacetic acid (EDTA) mixture (Invitrogen Ltd.; Catalogue No. 15400-054) and resuspended in test media comprising DMEM without phenol red (Sigma-1-Aldrich; Catalogue No. D5921) containing 1% charcoal-stripped-foetal calf serum (FCS) (Sigma-Aldrich; Catalogue No. F7524, stripped by incubation with dextran-coated activated charcoal at 55° C. for 30 minutes with continuous stirring followed by removal of the charcoal by centrifugation and filter sterilisation) and 2 mM L-glutamine (Invitrogen Ltd., Catalogue No. 25030-024) to give 6×10^4 cells per ml. […]

A further assay deals with PDGF receptor kinase. The settings on record: Nature Reviews 2002; Cancer Research 1996; cited from earlier work.
The subject of assay [1] is human glioblastoma lines U343 and U87. The conditions noted are these: U343 and U87 injected into the brains of nude mice; Cancer Research 2000; cited from earlier work.
For assay [2], the system named is dermatofibrosarcoma protruberans cell cultures. The conditions noted are these: Cancer Research 2001; cited from earlier work.

T3 sequence (P35968 786-1356 limits assumed): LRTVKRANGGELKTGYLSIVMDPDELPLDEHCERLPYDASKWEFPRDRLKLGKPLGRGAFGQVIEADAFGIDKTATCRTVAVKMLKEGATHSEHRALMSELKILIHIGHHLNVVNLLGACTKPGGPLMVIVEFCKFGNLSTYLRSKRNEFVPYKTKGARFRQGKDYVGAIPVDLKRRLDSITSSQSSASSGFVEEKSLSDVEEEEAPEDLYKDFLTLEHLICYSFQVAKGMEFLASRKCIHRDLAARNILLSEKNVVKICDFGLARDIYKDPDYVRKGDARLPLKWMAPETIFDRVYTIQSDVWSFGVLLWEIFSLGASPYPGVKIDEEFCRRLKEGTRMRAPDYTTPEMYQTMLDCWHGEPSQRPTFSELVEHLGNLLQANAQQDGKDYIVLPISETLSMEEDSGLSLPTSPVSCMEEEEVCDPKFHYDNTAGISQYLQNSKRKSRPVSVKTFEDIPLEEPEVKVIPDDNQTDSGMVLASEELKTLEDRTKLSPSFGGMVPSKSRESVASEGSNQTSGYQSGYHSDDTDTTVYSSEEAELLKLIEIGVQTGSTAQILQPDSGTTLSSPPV
T2 sequence (P09619 554-1106 limits assumed): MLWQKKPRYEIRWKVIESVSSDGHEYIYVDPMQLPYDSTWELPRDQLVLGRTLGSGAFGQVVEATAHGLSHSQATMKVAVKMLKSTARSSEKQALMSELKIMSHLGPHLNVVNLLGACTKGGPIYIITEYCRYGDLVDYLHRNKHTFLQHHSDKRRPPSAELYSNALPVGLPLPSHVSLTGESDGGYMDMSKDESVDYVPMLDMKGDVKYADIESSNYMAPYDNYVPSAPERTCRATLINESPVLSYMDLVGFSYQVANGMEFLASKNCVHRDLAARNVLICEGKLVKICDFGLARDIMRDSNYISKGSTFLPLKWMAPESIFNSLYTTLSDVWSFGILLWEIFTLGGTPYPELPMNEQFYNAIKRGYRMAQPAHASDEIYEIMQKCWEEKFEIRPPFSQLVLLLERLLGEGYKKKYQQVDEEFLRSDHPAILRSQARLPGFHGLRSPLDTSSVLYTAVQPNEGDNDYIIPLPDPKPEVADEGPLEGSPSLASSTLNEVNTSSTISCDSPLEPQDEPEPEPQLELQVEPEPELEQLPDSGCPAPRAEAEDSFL
T1 sequence (P16234 550-1089 limits assumed): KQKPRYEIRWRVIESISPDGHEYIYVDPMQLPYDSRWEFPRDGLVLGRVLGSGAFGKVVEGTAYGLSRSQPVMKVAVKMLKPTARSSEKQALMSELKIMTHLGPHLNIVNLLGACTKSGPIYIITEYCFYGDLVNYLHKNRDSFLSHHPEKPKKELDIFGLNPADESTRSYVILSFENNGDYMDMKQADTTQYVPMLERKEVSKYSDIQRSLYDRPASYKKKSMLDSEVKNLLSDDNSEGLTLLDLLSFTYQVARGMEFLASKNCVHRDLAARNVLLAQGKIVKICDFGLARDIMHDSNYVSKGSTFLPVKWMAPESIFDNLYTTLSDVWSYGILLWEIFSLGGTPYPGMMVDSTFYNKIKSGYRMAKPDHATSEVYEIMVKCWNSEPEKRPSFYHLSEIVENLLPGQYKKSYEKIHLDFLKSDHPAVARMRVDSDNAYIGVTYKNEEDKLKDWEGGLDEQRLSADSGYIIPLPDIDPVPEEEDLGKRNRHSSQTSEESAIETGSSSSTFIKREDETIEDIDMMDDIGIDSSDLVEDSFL
T4 sequence (P09619 33-1106): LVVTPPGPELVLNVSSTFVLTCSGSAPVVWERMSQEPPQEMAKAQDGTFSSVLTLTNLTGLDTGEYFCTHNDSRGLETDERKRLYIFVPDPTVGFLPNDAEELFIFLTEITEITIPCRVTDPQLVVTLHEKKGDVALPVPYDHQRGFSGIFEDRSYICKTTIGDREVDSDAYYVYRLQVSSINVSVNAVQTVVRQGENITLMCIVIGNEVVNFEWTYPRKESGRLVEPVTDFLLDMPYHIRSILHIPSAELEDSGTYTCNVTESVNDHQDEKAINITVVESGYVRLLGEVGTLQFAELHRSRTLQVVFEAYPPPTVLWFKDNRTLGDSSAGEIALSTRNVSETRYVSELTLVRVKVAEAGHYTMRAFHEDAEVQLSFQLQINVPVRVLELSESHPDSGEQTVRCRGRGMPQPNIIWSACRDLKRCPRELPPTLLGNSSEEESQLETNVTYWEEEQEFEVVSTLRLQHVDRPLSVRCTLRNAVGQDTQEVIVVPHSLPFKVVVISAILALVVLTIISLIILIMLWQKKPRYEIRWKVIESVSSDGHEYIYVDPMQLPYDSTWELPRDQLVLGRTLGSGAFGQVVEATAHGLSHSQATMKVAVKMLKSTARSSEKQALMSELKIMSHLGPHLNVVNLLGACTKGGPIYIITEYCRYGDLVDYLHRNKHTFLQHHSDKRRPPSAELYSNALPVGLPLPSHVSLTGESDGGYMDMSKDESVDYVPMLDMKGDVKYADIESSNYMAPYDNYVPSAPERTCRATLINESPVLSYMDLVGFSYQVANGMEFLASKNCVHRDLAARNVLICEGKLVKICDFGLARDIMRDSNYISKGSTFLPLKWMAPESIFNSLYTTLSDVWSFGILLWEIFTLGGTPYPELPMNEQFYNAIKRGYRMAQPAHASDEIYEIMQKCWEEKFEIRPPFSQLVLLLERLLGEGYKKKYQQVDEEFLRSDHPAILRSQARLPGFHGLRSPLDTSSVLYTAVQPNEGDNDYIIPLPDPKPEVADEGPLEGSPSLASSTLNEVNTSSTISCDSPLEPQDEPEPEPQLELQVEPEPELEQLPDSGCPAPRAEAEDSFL

As to `COc1cc2ncnc(Oc3cnn(CC(=O)Nc4ccc5c(c4)OCO5)c3)c2cc1OC` [Example 1, N-(3,4-methylenedioxyphenyl)-2-[4-(6,7-dimethoxyquinazolin-4-yloxy)pyrazol-1-yl]acetamide], the figures for the IC50 at PDGFRα tyrosine kinase, at PDGFRβ tyrosine kinase and at KDR tyrosine kinase were approximately 7 nM, approximately 0.5 nM and approximately 30 nM, respectively.
In the case of `COc1cc2ncnc(Oc3cnn(CC(=O)Nc4ccc5c(c4)NCC5)c3)c2cc1OC` [Example 40, N-(6-indolinyl)-2-[4-(6,7-dimethoxyquinazolin-4-yloxy)pyrazol-1-yl]acetamide], the IC50 is approximately 2 nM at KDR tyrosine kinase and approximately 1 nM on phospho-Tyr751 PDGFRβ.
`Cc1ccc(NC(=O)c2ccc(CN3CCN(C)CC3)cc2)cc1Nc1nccc(-c2cccnc2)n1` [imatinib]: the “inhibition of PDGF receptor kinase activity” value in the assay on PDGF receptor kinase is on record as “inhibit PDGF receptor kinase activity”. Moreover, in assay [1], the “growth of glioblastoma tumours” value is given as “inhibits the growth”. For the same compound, in assay [2], the “in vivo growth of dermatofibrosarcoma protruberans cell cultures” value was “inhibits the in vivo growth”.

For orientation: IC50 means the concentration at which inhibition is half-maximal.
